The values that follow are results of earlier work, collected in US7977431B2, “Dithiocarbamic esters” (LANXESS Deutschland GmbH, priority 2002, dated 2011).

For the first data set the following is noted: pKa of the protonated substituent Z of the regulator, not of the regulator itself.
Consider `C/C(Cl)=C/CSC(=S)n1cccc1` [Regulator compound (1), 3-chloro-2-butenyl 1H-pyrrole-1-carbodithioate], for which the “pKa value e Z-H” value is reported as 17.0. For the molecule `C/C(Cl)=C/CSC(=S)n1ccnc1` [Regulator compound (2), 3-chloro-2-butenyl 1H-imidazole-1-carbodithioate], the “pKa value e Z-H” value was 14.5.

As to `CCN(C(=S)SCc1ccccc1)c1ccccc1` [Regulator compound (3), Benzyl ethyl-(phenyl)dithio-carbamate, reference compound], the “pKa value e Z-H” value is given as 5.1. On to `CCN(C(=S)SC(C)C(=O)OC)c1ccccc1` (stereo not shown) [Regulator compound (4), Methyl 2-({[ethyl-(phenyl)amino]-carbonothioyl}-sulphanyl)-propanoate, reference compound], for which the “pKa value e Z-H” value is 5.1.

Take `CCN(C(=S)SC(C(=O)OC)c1ccccc1)c1ccccc1` (stereo not shown) [Regulator compound (5), Methyl ({[ethyl-(phenyl)amino]-carbonothioyl}-sulphanyl)(phenyl) acetate, reference compound]: the “pKa value e Z-H” value is on record as 5.1. On to `CCN(C(=S)SC/C=C(/C)Cl)c1ccccc1` [Regulator compound (6), reference compound], for which the “pKa value e Z-H” value is 5.1.

Staying with this data set, now noted: parent form Z-H of substituent Z.
For the molecule `O=C1CCCCCN1` [2-azepanone], the pKa value is reported as 16.6. As for `O=C1CCCCCCN1` [2-azocanone], the pKa value is listed as 16.6.

With `O=C1CCCCN1` [2-piperidinone], the pKa value is 16.6. Turning to `CC(=O)Nc1ccccc1` [N-phenylacetamide], the pKa value is recorded as 16.6. Regarding `c1ccc2c(c1)[nH]c1ccccc12` [carbazole], the pKa value is recorded as 17. In the case of `c1cn[nH]c1` [pyrazole], the pKa value is listed as 14.0. With N-(methyl/ethyl)acetamide, the pKa value is listed as 16.6.
